Reference: the supplement of paper PMC11061612

How the values were obtained:
[1] = tested on: HCC-15 (Squamous Cell Lung Carcinoma); assay: Bliss excess, mean over the matrix (fraction); higher = more synergy
Summary of the method: (§1)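 Cell lines in DMEM/F12 or RPMI with 10% FBS were plated in 1536-well plates, held 24 hours at 37°C, 5% CO2, then given two-drug dose matrices for 72 hours (DMSO typically 0.2%). Viability was read by CellTiter-Glo 2.0 luminescence and scaled as inhibition from 0 (vehicle wells) to 1 (blank wells). Combination Emax is the second-highest inhibition in the matrix; Bliss excess is observed combination effect minus expected EA + EB − EA·EB, EA and EB being single-agent effects.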

[2] = tested on: KARPAS-231 (B-Cell Non-Hodgkin's Lymphoma); assay: as above
Summary of the method: as §1

[3] = tested on: NCI-H747 (Colorectal Carcinoma); assay: as above
Summary of the method: as §1

[4] = tested on: OVCAR-8 (Ovarian Carcinoma); assay: as above
Summary of the method: as §1

[5] = tested on: SW626 (Colorectal Carcinoma); assay: as above
Summary of the method: as §1

[6] = tested on: UMC-11 (Other Solid Carcinomas); assay: as above
Summary of the method: as §1

[7] = tested on: 639-V (Bladder Carcinoma); assay: combination Emax (second highest fraction inhibited in the dose matrix, 72 h); higher = more inhibition; extreme values may be limits of the assay
Summary of the method: as §1

[8] = tested on: CAL-51 (Breast Carcinoma); assay: as above
Summary of the method: as §1

COLO-829 (Melanoma) = assay: as above
Summary of the method: as §1

[9] = tested on: CTB-1 (B-Cell Non-Hodgkin's Lymphoma); assay: as above
Summary of the method: as §1

[10] = tested on: HCC-15 (Squamous Cell Lung Carcinoma); assay: as above
Summary of the method: as §1

[11] = tested on: KARPAS-231 (B-Cell Non-Hodgkin's Lymphoma); assay: as above
Summary of the method: as §1

[12] = tested on: KYSE-410 (Esophageal Squamous Cell Carcinoma); assay: as above
Summary of the method: as §1

[13] = tested on: LB771-HNC (Head and Neck Carcinoma); assay: as above
Summary of the method: as §1

[14] = tested on: MHH-PREB-1 (B-Cell Non-Hodgkin's Lymphoma); assay: as above
Summary of the method: as §1

[15] = tested on: NCI-H747 (Colorectal Carcinoma); assay: as above
Summary of the method: as §1

[16] = tested on: OVCAR-8 (Ovarian Carcinoma); assay: as above
Summary of the method: as §1

[17] = tested on: SW626 (Colorectal Carcinoma); assay: as above
Summary of the method: as §1

[18] = tested on: TE-4 (Esophageal Squamous Cell Carcinoma); assay: as above
Summary of the method: as §1

[19] = tested on: UMC-11 (Other Solid Carcinomas); assay: as above
Summary of the method: as §1
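Throughout, for Bliss excess, mean over the matrix: after 72 h of two-drug dosing.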

CN(CCO)CC[C@H](CSc1ccccc1)Nc1ccc(S(=O)(=O)NC(=O)c2ccc(N3CCC([C@@H](O)c4ccccc4-c4ccc(Cl)cc4)CC3)cc2)cc1S(=O)(=O)C(F)(F)F [AZD4320] + C[C@@H](Nc1cc(F)cc(F)c1)c1cc(C(=O)N(C)C)cc2c(=O)cc(N3CCOCC3)oc12 [AZD8186] (first compound max 1 µM, 7x7, partner max 3 µM)
Bliss excess [1]: 0.0764 | Bliss excess [2]: 0.0269 | Bliss excess [3]: -0.0282 | Bliss excess [4]: 0.0245 | Bliss excess [5]: -0.0203 | Bliss excess [6]: -0.0356 | combination Emax [7]: 1 | combination Emax [8]: 0.443 | combination Emax (COLO-829 (Melanoma)): 0.277 | combination Emax [9]: 0.669 | combination Emax [10]: 0.96 | combination Emax [11]: 1 | combination Emax [12]: 0.299 | combination Emax [13]: 0.264 | combination Emax [14]: 0.277 | combination Emax [15]: 0.511 | combination Emax [16]: 0.57 | combination Emax [17]: 0.651 | combination Emax [18]: 0.333 | combination Emax [19]: 0.375
